# Results from patent publication US9783586B2, “Inhibitors of the linear ubiquitin chain assembly complex (LUBAC) and related methods” (The United States of America, as represented by the …, priority 2013, dated 2017).
# Entries after “also recorded” stand apart in the source; their conditions may differ. Positions of bridges follow the written chain, without caps; N, C: chain ends. Non-standard residues stand in square brackets, D forms with d. Residues, ends and D or L forms follow the SMILES beside them. No end group written: not given here. S5 = C=CCCC[C@](C)(N)C(=O)O; βAla = NCCC(=O)O
# Columns and labels:
# Type in all cases: cell-based
# ABC DLBCL cell lines = assay: MTS cell viability assay, ABC DLBCL
# Procedure: (§1) ABC and GCB DLBCL cell lines were treated with RNF31 stapled peptides of Table 2 at concentrations of 5 μM or 20 μM for four days. Cell viability was determined using the following MTS assay. Cells were plated in triplicate at a density of 15,000 cells per well in 96-well plates. Cell viability after indicated treatments was assayed by adding 3-(4,5-dimethylthiazol-2-yl)-5-(3-carboxymethoxyphenyl)-2-(4-sulphophenyl)-2H tetrazolium and an electron coupling reagent (phenazine methosulphate from Promega, Madison, Wis.), incubated for 3 hours and measured by the amount of 490 nm absorbance using a 96-well plate reader. The background was subtracted using a media only control. The results of these MTS assays done in triplicate are shown in FIGS. 7A-7D (error bars indicate the SEM), and cell viability is expressed as the fraction of cells remaining after four days treatment, relative to the initial number of cells at the start of treatment (time 0). The results of MTS cell viability assay indicate that amino-terminal cross-linked peptides RNF31-N (SEQ ID NO: 11) and RNF31-NC (SEQ ID NO: 12) were toxic to ABC DLBCL cell lines but had little effect on GCB DLBCL cell lines tested.
# NF-κB = NF-κB luciferase reporter assay; conditions: for NF-κB activity: ABC DLBCL cells, Example 10 (FIG. 8A); for Relative NF-κB-luciferase reporter activity: HBL1 ABC DLBCL cells, 5 μM or 20 μM, 2 days, relative to DMSO (FIG. 4)
# Procedure: A third experiment was done using a different reporter system for NF-κB activity. HBL1 and TMD8 ABC DLBCL lines cell lines were created with an NF-κB transcriptional reporter by transduction with lentiviral particles containing an inducible NF-κB-responsive luciferase reporter construct (SA Biosciences, Valencia, Calif.) and selected with puromycin. Luciferase activity was measured using the DUAL-LUCIFERASE™ Reporter Assay System (Promega) on a Microtiter Plate Luminometer (Dyn-Ex Technologies, Chantilly, Va.). The transduced HBL and TMD8 cell lines were then transfected with constructs that inducibly express control (SC4) or RNF31 shRNAs described above. Expression of shRNAs was induced using doxycyline, and the luciferase reporter activity in shRNF31 expression cells was measured and normalized relative to control (SC4). Cells were also treated with the specific IKKβ inhibitor (MLN120B) as a positive control. Experiments were done in triplicate, and results are shown in FIG. 2C (error bars indicate SEM).
# The ability of these peptides to inhibit NF-κB activity in ABC DLBCL was determined using the NF-κB luciferase reporter assay described above. Negative control cells were treated with dimethyl sulfoxide (DMSO), and positive control cells were treated with Bruton's tyrosine kinase (Btk) inhibitor ibrutinib. […] Cells were treated with peptides at concentrations of 5 μM or 20 μM for 2 days. Relative NF-κB-luciferase reporter activity was normalized and measured relative to control (DMSO-treated) cells. The results of triplicate experiments are shown in FIG. 4 (error bars indicate the SEM).
# IκBα = assay: IκBα-luciferase reporter assay; conditions: ABC DLBCL cells, Example 10 (FIG. 8B)
# Text: In a second experiment, HBL1 and TMD8 ABC DLBCL lines were engineered to contain an NF-κB-driven luciferase reporter. Vectors expressing an IκBα-luciferase fusion protein were constructed using Photinus luciferase from pGL3 vector (Promega, Madison, Wis.) as the reporter and Renilla luciferase construct from phRL-TK (Promega) was used for normalization. Stable clones were identified that were responsive to […] (see Lam et al, Clin Cancer Res, 11: 28-40 (2005)). After development with the DUAL-GLO luciferase assay system (Promega), the ratio of IκBα-Photinus to Renilla luminescence was normalized to that in untreated or uninduced cultures. The IκBα assay, which relies on the correlation between NF-κB activity and IKKβ kinase activity, was previously described in Lenz et al, Science, 319: 1676-1679 (2008). In brief, IKKβ kinase phosphorylates IκBα, which leads to degradation of IκBα (an inhibitor of NF-κB) and thereby activates NF-κB.
# The engineered cells were transfected with control (SC4) or RNF31 shRNAs under the control of a doxycyline promoter as described in Example 2. Expression of shRNA was induced with doxycyline, and relative amounts of NF-κB Luciferase reporter activity was measured and normalized relative to control (SC4) shRNA. As additional controls, the expression of NF-κB Luciferase reporter activity was measured in cells that were not expressing shRNAs and which were either treated with the specific IKKβ inhibitor (“MLM-120B”) or untreated (“No Rx”). Experiments were done in triplicate and the results are shown in FIG. 2B (error bars indicate standard error of the mean (SEM)).
# RBCK1/RNF31 interaction = biological target: T1, RBCK1/RNF31 interaction (Homo sapiens, UniProt Q9BYM8); assay: RBCK1/RNF31 co-immunoprecipitation (LUBAC complex formation) in co-transfected HEK-293 cells; conditions: for RBCK1/RNF31 interaction (anti-HA immunoprecipitation, densitometry): HEK-293 cells, 5 μM or 20 μM, 24 hours, relative to DMSO (FIGS. 5, 6)
# T1 construct: expressed in transfected cells; host or cells: HEK-293
# T1 sequence (Q9BYM8 1-510): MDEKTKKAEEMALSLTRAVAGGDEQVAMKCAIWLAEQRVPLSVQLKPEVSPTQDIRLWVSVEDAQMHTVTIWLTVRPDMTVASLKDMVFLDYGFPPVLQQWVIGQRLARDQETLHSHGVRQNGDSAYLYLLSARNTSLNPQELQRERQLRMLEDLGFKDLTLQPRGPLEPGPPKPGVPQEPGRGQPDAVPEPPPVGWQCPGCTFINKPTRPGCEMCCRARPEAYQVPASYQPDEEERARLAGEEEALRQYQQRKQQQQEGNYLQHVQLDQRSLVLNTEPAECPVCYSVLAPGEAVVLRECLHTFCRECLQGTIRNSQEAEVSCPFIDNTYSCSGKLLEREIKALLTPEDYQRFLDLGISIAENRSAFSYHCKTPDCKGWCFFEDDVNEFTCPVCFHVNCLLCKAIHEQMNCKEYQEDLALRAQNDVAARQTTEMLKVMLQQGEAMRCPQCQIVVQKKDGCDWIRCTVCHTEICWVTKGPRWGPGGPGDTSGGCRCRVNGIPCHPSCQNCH
# GCB DLBCL cell lines = assay: MTS cell viability assay, GCB DLBCL; conditions: 5 μM or 20 μM, four days (FIGS. 7A-7D)
# Procedure: as §1
# [1] = ABC DLBCL cells, Example 10 (FIG. 8C)
Compound,Cell viability (MTS) (ABC DLBCL cell lines; [1]),NF-κB activity (NF-κB),IκBα activity (IκBα-reporter) (IκBα),"Interference with LUBAC function (RBCK1/RNF31 interaction; Example 9, tested as described in Example 7 (present tense))",Relative NF-κB-luciferase reporter activity (NF-κB),"RBCK1/RNF31 interaction (anti-HA immunoprecipitation, densitometry) (RBCK1/RNF31 interaction)","Cell viability (MTS) (ABC DLBCL cell lines; ABC DLBCL cell lines, 5 μM or 20 μM, four days (FIGS. 7A-7D))",Cell viability (MTS) (GCB DLBCL cell lines)
"CC(=O)NCCC(=O)N[C@@H](CO)C(=O)N[C@@H](CCCNC(=N)N)C(=O)N[C@@]1(C)CCCC=CCCC[C@@](C)(C(=O)N[C@@H](CCC(N)=O)C(=O)N[C@@H](CCCNC(=N)N)C(=O)N[C@@H](CCC(N)=O)C(=O)N[C@@H](CCCNC(=N)N)C(=O)N[C@@H](CC(C)C)C(=O)N[C@@H](CCC(=O)O)C(=O)N2CCC[C@H]2C(=O)N[C@@H](Cc2ccccc2)C(=O)N[C@@H](CCCNC(=N)N)C(=O)N[C@@H](CC(C)C)C(=O)N[C@@H](CCCNC(=N)N)C(=O)N[C@@]2(C)CCCC=CCCC[C@@](C)(C(N)=O)NC(=O)[C@H](CO)NC(=O)[C@H](CC(=O)O)NC(=O)[C@H](Cc3c[nH]c4ccccc34)NC2=O)NC(=O)[C@H](CCC(=O)O)NC(=O)[C@H]([C@@H](C)O)NC(=O)[C@H](CC(C)C)NC1=O [RNF31-NC Q2L, Ac-βAla Ser Arg Xaa Leu Thr Glu Xaa Gln Arg Gln Arg Leu Glu Pro Phe Arg Leu Arg Xaa Trp Asp Ser Xaa-NH2] (Ac-[βAla]SR[S5]LTE[S5]QRQRLEPFRLR[S5]WDS[S5]-NH2; staple 4-8, 20-24)",decreased cell viability; also recorded: greatest activity,inhibited NF-κB activity; also recorded: greatest activity,decreased IκBα activity; also recorded: greatest activity,interfere with LUBAC function,–,–,–,–
Ac-βAla Ser Arg Ala Leu Thr Glu Leu Gln Arg Gln Arg Leu Glu Pro Phe Arg Gln Arg Leu Trp Asp Ser-NH2 (Ac-[βAla]SRALTELQRQRLEPFRQRLWDS-NH2; SMILES CC(=O)NCCC(=O)N[C@@H](CO)C(=O)N[C@@H](CCCNC(=N)N)C(=O)N[C@@H](C)C(=O)N[C@@H](CC(C)C)C(=O)N[C@H](C(=O)N[C@@H](CCC(=O)O)C(=O)N[C@@H](CC(C)C)C(=O)N[C@@H](CCC(N)=O)C(=O)N[C@@H](CCCNC(=N)N)C(=O)N[C@@H](CCC(N)=O)C(=O)N[C@@H](CCCNC(=N)N)C(=O)N[C@@H](CC(C)C)C(=O)N[C@@H](CCC(=O)O)C(=O)N1CCC[C@H]1C(=O)N[C@@H](Cc1ccccc1)C(=O)N[C@@H](CCCNC(=N)N)C(=O)N[C@@H](CCC(N)=O)C(=O)N[C@@H](CCCNC(=N)N)C(=O)N[C@@H](CC(C)C)C(=O)N[C@@H](Cc1c[nH]c2ccccc12)C(=O)N[C@@H](CC(=O)O)C(=O)N[C@@H](CO)C(N)=O)[C@@H](C)O) [RNF31-wt],decreased cell viability,inhibited NF-κB activity,decreased IκBα activity,–,less of an effect,little if any effect,–,–
Ac-βAla Ser Arg Ala Leu Thr Glu Leu Gln Arg Gln Arg Leu Glu Pro Phe Arg Gln Arg Xaa Trp Asp Ser Xaa-NH2 (Ac-[βAla]SRALTELQRQRLEPFRQR[S5]WDS[S5]-NH2; staple 20-24; SMILES CC(=O)NCCC(=O)N[C@@H](CO)C(=O)N[C@@H](CCCNC(=N)N)C(=O)N[C@@H](C)C(=O)N[C@@H](CC(C)C)C(=O)N[C@H](C(=O)N[C@@H](CCC(=O)O)C(=O)N[C@@H](CC(C)C)C(=O)N[C@@H](CCC(N)=O)C(=O)N[C@@H](CCCNC(=N)N)C(=O)N[C@@H](CCC(N)=O)C(=O)N[C@@H](CCCNC(=N)N)C(=O)N[C@@H](CC(C)C)C(=O)N[C@@H](CCC(=O)O)C(=O)N1CCC[C@H]1C(=O)N[C@@H](Cc1ccccc1)C(=O)N[C@@H](CCCNC(=N)N)C(=O)N[C@@H](CCC(N)=O)C(=O)N[C@@H](CCCNC(=N)N)C(=O)N[C@@]1(C)CCCC=CCCC[C@@](C)(C(N)=O)NC(=O)[C@H](CO)NC(=O)[C@H](CC(=O)O)NC(=O)[C@H](Cc2c[nH]c3ccccc23)NC1=O)[C@@H](C)O) [RNF31-C],–,–,–,–,less of an effect,little if any effect,–,–
Ac-βAla Ser Arg Xaa Leu Thr Glu Xaa Gln Arg Gln Arg Leu Glu Pro Phe Arg Gln Arg Leu Trp Asp Ser-NH2 (Ac-[βAla]SR[S5]LTE[S5]QRQRLEPFRQRLWDS-NH2; staple 4-8; SMILES CC(=O)NCCC(=O)N[C@@H](CO)C(=O)N[C@@H](CCCNC(=N)N)C(=O)N[C@@]1(C)CCCC=CCCC[C@@](C)(C(=O)N[C@@H](CCC(N)=O)C(=O)N[C@@H](CCCNC(=N)N)C(=O)N[C@@H](CCC(N)=O)C(=O)N[C@@H](CCCNC(=N)N)C(=O)N[C@@H](CC(C)C)C(=O)N[C@@H](CCC(=O)O)C(=O)N2CCC[C@H]2C(=O)N[C@@H](Cc2ccccc2)C(=O)N[C@@H](CCCNC(=N)N)C(=O)N[C@@H](CCC(N)=O)C(=O)N[C@@H](CCCNC(=N)N)C(=O)N[C@@H](CC(C)C)C(=O)N[C@@H](Cc2c[nH]c3ccccc23)C(=O)N[C@@H](CC(=O)O)C(=O)N[C@@H](CO)C(N)=O)NC(=O)[C@H](CCC(=O)O)NC(=O)[C@H]([C@@H](C)O)NC(=O)[C@H](CC(C)C)NC1=O) [RNF31-N],–,–,–,–,strongly inhibit NF-κB,inhibited RBCK1/RNF31 interaction in a dose-dependent fashion,toxic,little effect
SRALTELQRQRLEPFRQRLWDSG [SEQ ID NO:1],little or no effect,little or no effect,little or no effect,–,–,–,–,–
